Laboratory results from paper PMC7367283, “A PIP2 substitute mediates voltage sensor-pore coupling in KCNQ activation” (Communications Biology, 2020).
“And” between values parts separate entries of the source, which are not always exact repeats. Equal entries are not always repeated.

What was measured:
Assay in all cases: Two-electrode voltage clamp of mutant KCNQ1 in Xenopus oocytes
Format in all cases: cell-based
[1] = target: KCNQ1 K358A (Homo sapiens, UniProt P51787, K358A)
Text: (§1) In a previous study, mutation of residues in the predicted PIP2-binding site reduced KCNQ1 currents. CP1 modifies voltage-dependent activation of KCNQ1 channels by shifting the voltage dependence of channel opening, measured as the voltage dependence of the conductance (G–V) relationship, to more negative voltages (Fig. 1c) among other characteristics (see below). We made mutations to the residues around the CP1-interacting pocket as indicated by molecular docking (Fig. 1b), and examined the effects of the mutations on the CP1-induced shift of the G–V relationship. The mutations of the KCNQ1 residues that interact with CP1 in docking simulations reduced the shift of the G–V relationship (Fig. 1c, d), supporting the interaction of these residues with CP1.
(§2) Complementary DNA (cDNA) encoding human KCNQ1 (UniProtKB/Swiss‐Prot under accession no. P51787), KCNQ2 (O43526), KCNQ3 (O43525), KCNE1 (P15382), Kir1.1 (P48048), hERG (Q12809), KV4.2 (Q63881), NaV1.5 (Q14524), NaV β1 (Q07699), CaV1.2 (Q13936), CaV β1a (Q02641), CaV α2/δ1 (P54289), and HCN4 (Q9Y3Q4) were subcloned into oocyte expression vectors, respectively. Site-directed mutations of the KCNQ1 channel were all produced by overlap extension polymerase chain reaction (PCR) with high-fidelity Pfu polymerase (Stratagene, CA). The presence of the desired mutation was verified by sequencing the PCR-amplified regions. All the primer sequences used in this study are available in Supplementary Table 1. The complementary RNA (cRNA) of all these channels and mutations was transcribed in vitro with the T3, T7, or SP6 polymerase mMessage mMachine kit (Invitrogen, Thermo Fisher Scientific, MO).
(§3) The use of Xenopus laevis to obtain oocytes was approved by the Washington University Animal Studies Committee (protocol #20190030). Oocytes were manually dispersed and digested with collagenase (0.5 mg/ml, Sigma-Aldrich, Saint Louis, MO) to remove the follicle cell layer. Stage V or VI oocytes were selected and injected with cRNAs (9.2 ng) of channel or mutations. Especially, to characterize IKs, a mix of cRNAs at a molar ratio 4:1 (KCNQ1:KCNE1) was injected. For KCNQ2/KCNQ3, the molar ratio was 1:1 (KCNQ2:KCNQ3). For sodium channels, a 3:1 molar ratio (β1:NaV1.5) and for calcium channels a weight ratio 1:1:1 (β1:α2/δ1:CaV1.2) was injected, respectively. Injected oocytes were incubated in ND96 solution containing (in mM) 96 NaCl, 2 KCl, 1.8 CaCl2, 1 MgCl2, and 5 HEPES, pH 7.6, supplemented with 2.5 mM Na pyruvate and 1% penicillin–streptomycin, at 18 °C for 3–7 days before recording.
(§4) The whole-oocyte ionic currents were recorded with a GeneClamp 500B amplifier (Axon Instruments, CA) or iTEV90 amplifier (HEKA, Germany) and then sampled at 1 kHz and low-pass-filtered at 2 kHz. The Patchmaster software (HEKA, Germany) was used to acquire data. The Kir1.1 current was recorded with a high K^+ bath solution containing (in mM) 96 KCl, 4 NaCl, 1 CaCl2, 2 MgCl2, and 10 HEPES, pH 7.3–7.4. The HCN4 current was recorded in ND66 solution containing (in mM) 66 NaCl, 32 KCl, 1.8 CaCl2, 1 MgCl2, and 5 HEPES, pH 7.6. All the other potassium channels were recorded in ND96 solution. The currents of CaV1.2 channel were recorded in 40 mM Ba^2+ bath solution containing (in mM) 40 Ba(OH)2, 50 TEA-OH, 2 KOH, and 5 HEPES, adjusted to pH 7.4 with methanesulfonic acid. CP1 (DISODIUM 5-BROMO-2-[9-CHLORO-3-(SULFONATOOXY) NAPHTHO [1,2-B] THIEN-2-YL]-1H-INDOL-3-YL SULFATE, Sigma-Aldrich, MO) and Chromanol 293B (Sigma-Aldrich, MO) were dissolved in bath solutions. All the chemicals were purchased from Sigma-Aldrich. To measure the I–V relations of the Kir1.1 channel, the test voltage was set from −100 to +60 mV for 1 s with 20-mV increments. The test pulses were stepped from a holding potential of 0 mV and then stepped back to 0 mV. The HCN4 currents were recorded by a test pulse between −30 and −140 mV in 10-mV step from a holding potential of −30 mV. […]

[2] = target: KCNQ1 Q359A (Homo sapiens, UniProt P51787, Q359A); conditions: 10 µM CP1, individual oocytes
Text: as §1, §2, §3, §4

[3] = target: KCNQ1 R243A (Homo sapiens, UniProt P51787, R243A); conditions: 10 µM CP1, individual oocytes
Text: as §1, §2, §3, §4

[4] = target: KCNQ1 R243A/R249A (Homo sapiens, UniProt P51787, R243A/R249A); conditions: 10 µM CP1, individual oocytes
Text: as §1, §2, §3, §4

[5] = target: KCNQ1 R249A/K354A (Homo sapiens, UniProt P51787, K354A/R249A); conditions: 10 µM CP1, individual oocytes
Text: as §1, §2, §3, §4

[6] = target: KCNQ1 R259A (Homo sapiens, UniProt P51787, R259A); conditions: 10 µM CP1, individual oocytes
Text: as §1, §2, §3, §4

[7] = target: KCNQ1 S253A (Homo sapiens, UniProt P51787, S253A)
Text: as §1, §2, §3, §4

[8] = target: KCNQ1 W248R (Homo sapiens, UniProt P51787, W248R); conditions: 10 µM CP1, individual oocytes
Text: as §1, §2, §3, §4

O=S(=O)([O-])Oc1c(-c2sc3c(ccc4cccc(Cl)c43)c2OS(=O)(=O)[O-])[nH]c2ccc(Br)cc12.[Na+].[Na+] [CP1, DISODIUM 5-BROMO-2-[9-CHLORO-3-(SULFONATOOXY) NAPHTHO [1,2-B] THIEN-2-YL]-1H-INDOL-3-YL SULFATE]
G/Gmax ([1]; 10 µM CP1, 0 mV): 0.9554
G/Gmax ([1]; 10 µM CP1, 10 mV): 0.9870
G/Gmax ([1]; 10 µM CP1, 20 mV): 1.0000
G/Gmax ([1]; 10 µM CP1, -10 mV): 0.8985
G/Gmax ([1]; 10 µM CP1, -20 mV): 0.8248
G/Gmax ([1]; 10 µM CP1, -30 mV): 0.7348
G/Gmax ([1]; 10 µM CP1, -40 mV): 0.6300
G/Gmax ([1]; 10 µM CP1, -50 mV): 0.5260
G/Gmax ([1]; 10 µM CP1, -60 mV): 0.4207
G/Gmax ([1]; 10 µM CP1, -70 mV): 0.3286
G/Gmax ([1]; 10 µM CP1, -80 mV): 0.2595
G/Gmax ([1]; 10 µM CP1, -90 mV): 0.1953
G/Gmax ([1]; 10 µM CP1, -100 mV): 0.1209
G/Gmax ([1]; 10 µM CP1, -110 mV): 0.0580
G/Gmax ([1]; 10 µM CP1, -120 mV): 0.0105
∆V1/2 ([1]; 10 µM CP1, individual oocytes): 15.3181 mV and 41.4752 mV and 28.1195 mV and 31.8534 mV and 36.2122 mV and 21.5083 mV and 28.8875 mV
∆V1/2 [2]: 92.2901 mV and 78.8586 mV and 79.8593 mV and 57.9843 mV
∆V1/2 [3]: 24.1172 mV and 49.8519 mV and 42.6967 mV and 36.2884 mV and 45.9483 mV and 47.7413 mV
∆V1/2 [4]: 58.531 mV and 59.5008 mV and 36.2737 mV and 44.7577 mV
∆V1/2 [5]: 32.102 mV and 39.1842 mV and 11.494 mV and 26.1488 mV and 17.9511 mV
∆V1/2 [6]: 40.9982 mV and 50.0211 mV and 57.3239 mV and 73.9485 mV
G/Gmax ([7]; 10 µM CP1, -10 mV): 1.0000
G/Gmax ([7]; 10 µM CP1, -20 mV): 0.9987
G/Gmax ([7]; 10 µM CP1, -30 mV): 0.9693
G/Gmax ([7]; 10 µM CP1, -40 mV): 0.9339
G/Gmax ([7]; 10 µM CP1, -50 mV): 0.8910
G/Gmax ([7]; 10 µM CP1, -60 mV): 0.8327
G/Gmax ([7]; 10 µM CP1, -70 mV): 0.7485
G/Gmax ([7]; 10 µM CP1, -80 mV): 0.6141
G/Gmax ([7]; 10 µM CP1, -90 mV): 0.4531
G/Gmax ([7]; 10 µM CP1, -100 mV): 0.2784
G/Gmax ([7]; 10 µM CP1, -110 mV): 0.1217
G/Gmax ([7]; 10 µM CP1, -120 mV): 0.0000
∆V1/2 ([7]; 10 µM CP1, individual oocytes): 62.813 mV and 60.7614 mV and 50.2508 mV and 66.8458 mV
∆V1/2 [8]: 27.0173 mV and 42.5898 mV and 38.6048 mV
